# Source: paper PMC6511888, “Synthesis, Biological Evaluation, and Molecular Modeling Studies of New Thiadiazole Derivatives as Potent P2X7 Receptor Inhibitors” (Frontiers in Chemistry, 2019)
# Legend:
# P2X7R = target: T1, P2X7R (Mus musculus, UniProt Q9Z1M0); assay: Dye uptake assay (propidium iodide) in mouse peritoneal macrophages; assay type: cell-based; details: mean ± SD
# T1 construct: plated for 24 h before dye uptake assays, whole-cell patch clamp experiments, and IL-1β release assays; endogenous in cells; host or cells: mouse (Swiss Webster) peritoneal macrophages
# T1 sequence (Q9Z1M0 1-595): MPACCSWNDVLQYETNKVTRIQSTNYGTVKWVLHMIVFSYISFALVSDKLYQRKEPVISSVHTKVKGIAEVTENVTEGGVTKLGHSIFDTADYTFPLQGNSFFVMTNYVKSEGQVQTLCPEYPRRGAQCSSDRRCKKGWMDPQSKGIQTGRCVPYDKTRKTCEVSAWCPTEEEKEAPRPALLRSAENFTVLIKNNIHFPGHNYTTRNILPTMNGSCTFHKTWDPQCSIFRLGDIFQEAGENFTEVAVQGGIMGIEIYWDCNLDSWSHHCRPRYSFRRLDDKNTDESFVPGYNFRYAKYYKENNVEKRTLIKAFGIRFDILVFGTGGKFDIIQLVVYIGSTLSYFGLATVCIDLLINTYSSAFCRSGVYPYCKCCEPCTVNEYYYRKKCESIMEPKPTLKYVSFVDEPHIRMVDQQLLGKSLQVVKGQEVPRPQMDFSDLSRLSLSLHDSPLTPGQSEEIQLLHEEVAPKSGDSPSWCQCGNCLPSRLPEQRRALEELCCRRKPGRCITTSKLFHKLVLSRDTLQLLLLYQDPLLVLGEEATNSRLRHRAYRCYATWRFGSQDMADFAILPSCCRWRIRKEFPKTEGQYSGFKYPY
# Protocol: Our protocols adhered to the Ethical Principles in Animal Experimentation adopted by the Brazilian College of Animal Experimentation and approved by the FIOCRUZ Research Ethics Committee (Faria et al., [2005]; number L039- 2016). Male mouse (Swiss Webster) peritoneal macrophages were collected from peritoneal cavity lavage and plated for 24 h before dye uptake assays, whole-cell patch clamp experiments, and IL-1β release assays.
# (§1) HEK-293 cells transfected with hP2X7R and mouse peritoneal macrophages were plated at 2.5 × 10^6 or 5 × 10^5 cells/ml, respectively, in 96-well culture plates containing DMEM with 10% FBS and anti-biotics (50 U/ml penicillin and […] streptomycin) in a humidified 5% CO2 atmosphere at 37°C for 24 h (Faria et al., [2018]).
# […] In the last 5 min of ATP incubation, propidium iodide for macrophages (PI; 750 nM) or ethidium bromide (EB; 25 μM) for HEK-293 cells was added to all wells. PI dye was excited at a wavelength of 530 nm, and its fluorescence emission was read at a wavelength of 590 nm using an M5 plate reader (Molecular Devices). EB dye was excited at a wavelength of 530 nm and emitted at a wavelength of 620 nm.
# human P2X7R = target: T2, human P2X7R (Homo sapiens, UniProt Q99572); assay: Dye uptake assay (ethidium bromide) in HEK-293 cells transfected with hP2X7R; assay type: cell-based; details: ethidium uptake assay; HEK-293 cells transfected with human P2X7R; mean ± SD
# T2 construct: expressed in transfected cells; host or cells: HEK-293
# T2 sequence (Q99572 1-595): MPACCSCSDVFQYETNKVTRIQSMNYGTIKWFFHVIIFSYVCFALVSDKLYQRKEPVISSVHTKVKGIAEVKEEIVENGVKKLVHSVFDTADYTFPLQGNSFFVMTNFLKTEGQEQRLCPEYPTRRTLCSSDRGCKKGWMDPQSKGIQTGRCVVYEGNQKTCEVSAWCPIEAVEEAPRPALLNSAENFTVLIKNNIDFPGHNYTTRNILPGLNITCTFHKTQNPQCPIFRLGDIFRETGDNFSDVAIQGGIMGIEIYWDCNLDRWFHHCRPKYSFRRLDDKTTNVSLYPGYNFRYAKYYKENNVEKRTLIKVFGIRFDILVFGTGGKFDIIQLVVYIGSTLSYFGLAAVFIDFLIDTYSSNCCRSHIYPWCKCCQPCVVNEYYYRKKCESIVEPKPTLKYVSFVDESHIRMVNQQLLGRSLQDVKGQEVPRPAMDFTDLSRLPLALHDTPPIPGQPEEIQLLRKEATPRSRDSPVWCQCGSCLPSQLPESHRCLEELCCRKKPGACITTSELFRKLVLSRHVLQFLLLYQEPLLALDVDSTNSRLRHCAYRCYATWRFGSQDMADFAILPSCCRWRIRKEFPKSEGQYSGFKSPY
# Protocol: HEK-293 cells expressing human P2X7R were maintained in Dulbecco's modified Eagle's medium (DMEM; Sigma-Aldrich) supplemented with 10% fetal bovine serum (FBS; Prolab, Br) and anti-biotics (50 U/ml penicillin and […] streptomycin) in a humidified 5% CO2 atmosphere at 37°C (Faria et al., [2018]). A total of 5 × 10^5 cells were plated at 37°C in a humidified 5% CO2 atmosphere for 24 h in a 96-well plate for dye uptake or IL-1β release assays.
# as §1
# P2X7R antagonist and thiadiazole analogs (1 nM to 0.5 mM) were incubated for 5 min before ATP (5 mM) treatment for 20 min. In the last 5 min of ATP incubation, propidium iodide for macrophages (PI; 750 nM) or ethidium bromide (EB; 25 μM) for HEK-293 cells was added to all wells. PI dye was excited at a wavelength of 530 nm, and its fluorescence emission was read at a wavelength of 590 nm using an M5 plate reader (Molecular Devices). EB dye was excited at a wavelength of 530 nm and emitted at a wavelength of 620 nm.
# [1] = LDH release assay (toxicity); assay type: cell-based, mouse; details: mouse peritoneal macrophages; 24 h; read-out: Macrophages IC50 (toxic effect)
# Protocol: (§2) Mouse peritoneal macrophages (5 × 10^5 cells) and HEK-293 cells transfected with P2X7R (5 × 10^5 cells) were plated in a 96-well-plate for 24 h before the treatment. […] The supernatant collected in this assay was used to measure the presence of LDH in the media using a cytotoxicity detection kit (Sigma kit for LDH) according to the manufacturer's instructions (Faria et al., [2018]).
# [2] = test system: mouse peritoneal macrophages; assay: LDH release assay (toxicity); assay type: cell-based; details: relative to maximum LDH release caused by 0.05% Triton X-100, mean ± SD
# Protocol: as §2
# [3] = test system: P2X7R-mediated IL-1β release; assay: ATP-induced IL-1β release (ELISA) in differentiated THP-1 cells; assay type: cell-based, human; details: ATP-induced IL-1β release; LPS/IFN-differentiated human THP-1 cells; read-out: THP-1 cells IC50
# Protocol: P2X7R-mediated IL-1β release was obtained from differentiated THP-1 cells stimulated with lipopolysaccharide (LPS) before ATP addition. […] THP-1 cells were differentiated with 500 ng/ml phorbol 12-myristate 13-acetate (PMA) and 10 ng/ml IFN-γ cotreatment for 24 h. These cells were activated with 25 ng/ml LPS for 4 h. […] P2X7R antagonists (BBG and A740003) and thiadiazole analogs were added 30 min before the ATP stimulus. The supernatants were collected, centrifuged (1,000 rpm for 5 min at 4°C), and stored at −70°C after LPS incubation. IL-1β was quantified using a standard kit (ABCAM, Cambridge).
# P2Y13R = target: T3, P2Y13R (Homo sapiens, UniProt Q9BPV8); assay: ADPβS-induced [Ca2+]i shifts in HEP2G cells; assay type: cell-based; details: 1 μM
# T3 construct: endogenous in cells; host or cells: HEP2G (HEPG2) cells
# T3 sequence (Q9BPV8 1-354): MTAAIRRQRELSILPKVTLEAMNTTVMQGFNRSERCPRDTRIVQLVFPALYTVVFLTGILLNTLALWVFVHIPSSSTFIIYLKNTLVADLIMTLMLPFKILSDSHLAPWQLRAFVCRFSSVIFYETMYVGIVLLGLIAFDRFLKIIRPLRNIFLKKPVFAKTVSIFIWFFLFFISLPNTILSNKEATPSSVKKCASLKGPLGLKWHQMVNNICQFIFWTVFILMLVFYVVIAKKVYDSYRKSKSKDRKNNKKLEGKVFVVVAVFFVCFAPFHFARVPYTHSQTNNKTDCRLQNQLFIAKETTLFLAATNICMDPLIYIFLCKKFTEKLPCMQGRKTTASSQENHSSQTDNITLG
# Protocol: (§3) Mouse peritoneal macrophages, PC12 cells, J774 cells, and HEPG2 cells were analyzed by fluorescence microscopy to measure the intracellular Ca^2+ concentrations ([Ca^2+]i). Cells were incubated with 2 μM Fura-2-AM (Molecular Probes) for 30 min, and the [Ca^2+]i mobilization was measured in the F340/F380 ratios with a FlexStation 3 multimode microplate reader (Molecular Devices). Cells were plated in translucent 96-well plates (BD Falcon) for 15 min and then washed and incubated in a saline solution with 150 NaCl, 5 KCl, 1 MgCl2, 1 CaCl2, and 10 HEPES (pH 7.4) for 30 min before measurements of [Ca^2+]i. The Ca^2+ influx was induced by stimulating cells with P2 receptor agonists. P2 receptor antagonists were added 10 min before P2 receptor agonist addition. […] Ionomycin was considered a positive control, and the other recordings were normalized in relation to the AUC.
# P2Y4R = target: T4, P2Y4R (Mus musculus, UniProt Q9JJS7); assay: MRS4062-induced [Ca2+]i shifts in mice peritoneal macrophages; assay type: cell-based; details: 1 μM
# T4 construct: endogenous in cells; host or cells: mouse peritoneal macrophages
# T4 sequence (Q9JJS7 whole entry): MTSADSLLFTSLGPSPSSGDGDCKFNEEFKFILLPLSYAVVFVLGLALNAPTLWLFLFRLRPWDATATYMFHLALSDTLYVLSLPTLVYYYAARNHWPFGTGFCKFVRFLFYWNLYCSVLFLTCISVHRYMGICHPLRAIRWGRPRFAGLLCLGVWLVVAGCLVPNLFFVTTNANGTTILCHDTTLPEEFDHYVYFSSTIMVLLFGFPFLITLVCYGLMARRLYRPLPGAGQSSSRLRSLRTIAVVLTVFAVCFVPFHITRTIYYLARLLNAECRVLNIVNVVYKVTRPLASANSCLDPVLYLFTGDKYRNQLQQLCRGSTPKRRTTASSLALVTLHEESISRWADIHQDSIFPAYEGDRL
# Protocol: as §3
# P2Y11R = assay: NAADP-induced [Ca2+]i shifts in mouse peritoneal macrophages; assay type: cell-based; details: 1 μM
# Protocol: as §3
# P2Y12R = target: T5, P2Y12R (Mus musculus, UniProt Q9CPV9); assay: 2MeSADP-activated [Ca2+]i shifts in mouse peritoneal macrophages; assay type: cell-based; details: 1 μM
# T5 construct: endogenous in cells; host or cells: mouse peritoneal macrophages
# T5 sequence (Q9CPV9 whole entry): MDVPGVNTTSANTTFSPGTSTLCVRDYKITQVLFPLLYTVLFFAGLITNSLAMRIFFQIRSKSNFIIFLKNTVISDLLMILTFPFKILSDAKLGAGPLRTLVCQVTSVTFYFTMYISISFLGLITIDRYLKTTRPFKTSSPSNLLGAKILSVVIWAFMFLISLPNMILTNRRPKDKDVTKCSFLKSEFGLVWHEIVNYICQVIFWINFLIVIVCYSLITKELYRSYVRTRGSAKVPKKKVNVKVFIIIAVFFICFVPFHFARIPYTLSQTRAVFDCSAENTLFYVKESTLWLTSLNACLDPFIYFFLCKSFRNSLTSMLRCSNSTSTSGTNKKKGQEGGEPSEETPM
# [4] = percentage relative to the maximum uptake of propidium stimulated by 1 mM ATP only
Structure (SMILES),inhibition at 10 µM (P2X7R; [4]) [%],melting point [°C],"% LDH release ([2]; 10 μM, cell type not given) [%]",also measured
"CCOc1ccc(Nc2ccc(/C(=C3C=C/C(=[N+](/CC)Cc4cccc(S(=O)(=O)[O-])c4)C=C/3C)c3ccc(N(CC)Cc4cccc(S(=O)(=O)O)c4)cc3C)cc2)cc1 [BBG, Brilliant Blue G, reference compound]",,,,"inhibition at 0.75 µM (P2X7R; BBG 750 nM, percentage relative to the maximum uptake of propidium stimulated by 1 mM ATP only): 78.8 ± 3.8%; IC50 (P2X7R; propidium uptake assay, mice peritoneal macrophages): 1200 ± 100 nM; IC50 (human P2X7R): 589 ± 12 nM; IC50 at 24 h [1]: 87 ± 1 µM; % LDH release ([2]; BBG 750 nM): 13.2 ± 2.6%; IC50 [3]: 1900 ± 300 nM"
N#Cc1cnn(-c2nnc(-c3ccccc3)s2)c1N [Compound 9a],89.2 ± 2.2,234 to 235,58.1 ± 4.8,
N#Cc1cnn(-c2nnc(-c3ccc(Cl)cc3)s2)c1N [Compound 9d],62.2 ± 4.02,> 300,46.3 ± 5.12,
CCOC(=O)c1cnn(-c2nnc(-c3ccccc3)s2)c1N [Compound 9e],90.2 ± 0.4,165 to 167,36.3 ± 11.0,
CCOC(=O)c1cnn(-c2nnc(-c3ccc(F)cc3)s2)c1N [Compound 9g],90.8 ± 1.1,250 to 251,22.6 ± 0.3,
CCOC(=O)c1cnn(-c2nnc(-c3ccc(Cl)cc3)s2)c1N [Compound 9h],64 ± 3.7,252 to 253,15 ± 1.9,
Cc1cc(C)n(-c2nnc(-c3ccccc3)s2)n1 [Compound 11a],92.5 ± 0.3,170 to 171,34.1 ± 2,
Cc1cc(C)n(-c2nnc(-c3ccccc3Cl)s2)n1 [Compound 11b],89.7 ± 2.6,163 to 165,45.7 ± 1.7,
Cc1cc(C)n(-c2nnc(-c3ccc(Cl)cc3)s2)n1 [Compound 11d],69.8 ± 0.7,202 to 203,36.94 ± 10.6,
CC1(O)CC(C(F)(F)F)=NN1c1nnc(-c2ccccc2)s1 (stereo not drawn) [Compound 13a],90.5 ± 1.4,183 to 185,8 ± 0.6,
CC1(O)CC(C(F)(F)F)=NN1c1nnc(-c2ccccc2Cl)s1 (stereo not drawn) [Compound 13b],90.7 ± 1.6,,19.6 ± 0.6,
CC1(O)CC(C(F)(F)F)=NN1c1nnc(-c2ccc(F)cc2)s1 (stereo not drawn) [Compound 13c],92 ± 0.4,182 to 183,45.3 ± 1.4,
CC1(O)CC(C(F)(F)F)=NN1c1nnc(-c2ccc(Cl)cc2)s1 (stereo not drawn) [Compound 13d],71 ± 0.2,184 to 185,38.5 ± 6.2,
Cc1nc(N=Nc2cc([N+](=O)[O-])ccc2Cl)c(COP(=O)(O)O)c(C=O)c1O [MRS2211],,,,Effect on ADPβS-induced [Ca2+]i shifts (P2Y13R): inhibited
S=C=Nc1cccc(NC(=S)NCCCCNC(=S)Nc2cccc(N=C=S)c2)c1 [MRS2578],,,,Effect on MRS4062-induced [Ca2+]i shifts (P2Y4R): inhibited
Cc1ccc(C(=O)Nc2cc(S(=O)(=O)O)cc3ccc(S(=O)(=O)O)cc23)cc1NC(=O)Nc1cc(C(=O)Nc2cc(S(=O)(=O)O)cc3ccc(S(=O)(=O)O)cc23)ccc1C [NF340],,,,Effect on NAADP-induced [Ca2+]i shifts (P2Y11R): inhibited
CCCSc1nc(N[C@@H]2C[C@H]2c2ccc(F)c(F)c2)c2nnn([C@@H]3C[C@H](OCCO)[C@@H](O)[C@H]3O)c2n1 [Ticagrelor],,,,Effect on 2MeSADP-activated [Ca2+]i shifts (P2Y12R): inhibited

# The next lines start with results.
inhibition at 10 µM (P2X7R; [4]) [%],melting point [°C],Structure (SMILES),"% LDH release ([2]; 10 μM, cell type not given) [%]",also measured
91 ± 1,163 to 164,Cc1cc(C(F)(F)F)nn1-c1nnc(-c2ccccc2)s1 [Compound 14a],32 ± 1,
92 ± 2,139 to 140,Cc1cc(C(F)(F)F)nn1-c1nnc(-c2ccccc2Cl)s1 [Compound 14b],26.6 ± 1.2,
92.5 ± 0.4,149 to 150,Cc1cc(C(F)(F)F)nn1-c1nnc(-c2ccc(F)cc2)s1 [Compound 14c],10.6 ± 0.5,
54.7 ± 0.5,147 to 148,Cc1cc(C(F)(F)F)nn1-c1nnc(-c2ccc(Cl)cc2)s1 [Compound 14d],43 ± 5,
